Measurements from US20070224593A1 (priority 2005, published 2007).

Tests used:
[1] = biological target: non-amyloid or pre-amyloid PrP-d (Ovis aries, UniProt P23907); format: binding; details: such compounds were previously believed to associate only with classical amyloid PrP-d isoforms
[2] = biological target: scrapie-form prion protein (PrP-d) (Ovis aries, UniProt P23907); details: retropharyngeal lymph nodes of TSE+ sheep, ex vivo; 100 μM, 10 min, RT; λex approx. 370 nm, λem approx. 450 nm; TSE status confirmed by PrP-d immunohistochemistry
PrP-d = PrP-d (Ovis aries, UniProt P23907); format: binding; details: same section of unfixed lymphoid tissue from scrapie positive sheep
PrP-d, sequence (P23907 25-233 limits assumed): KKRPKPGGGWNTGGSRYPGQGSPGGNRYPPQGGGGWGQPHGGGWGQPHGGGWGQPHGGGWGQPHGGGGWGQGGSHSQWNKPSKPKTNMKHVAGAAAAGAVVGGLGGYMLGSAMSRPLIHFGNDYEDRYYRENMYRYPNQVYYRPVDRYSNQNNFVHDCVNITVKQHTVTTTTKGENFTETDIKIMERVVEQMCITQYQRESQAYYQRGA

non-amyloid or pre-amyloid PrP-d, sequence (P23907 25-233 limits assumed): as above
scrapie-form prion protein (PrP-d), sequence (P23907 25-233 limits assumed): as above

| Compound | Binding to non-amyloid or pre-amyloid PrP-d [1] | PrP-d detection and visualization by probe fluorescence [2] | Correlation of probe imaging with antibody binding (immunohistochemistry, AEC) (PrP-d) |
| --- | --- | --- | --- |
| 1,4-bis(4′-hydroxystyrl)-2-methoxybenzene [Me-X04] | Binding | detected and visualized | – |
| O=C(O)c1cc(C=Cc2ccc(C=Cc3ccc(O)c(C(=O)O)c3)cc2)ccc1O [X-34, 1,4-bis(3-carboxy-4-hydroxyphenylethenyl)-benzene] | Binding | – | colocalization of the X34 binding and the antibody binding |
